Results: the NIST ThermoML archive (doi:10.1016/j.jct.2016.11.009)

Assay: xn = mol fraction of the nth substance listed
Settings: Fluid (supercritical or subcritical phases), Buoyancy - hydrostatic balance with magnetic suspension - one sinker

C [methane] + O=C=O
Settings | mass density [kg/m3]
299.61 K, 4220 kPa, x2 = 0.6015 | 65.102
299.93 K, 5997 kPa, x2 = 0.3997 | 77.827
299.94 K, 6004 kPa, x2 = 0.6015 | 100.404
299.95 K, 9002 kPa, x2 = 0.2017 | 95.03
299.95 K, 15006 kPa, x2 = 0.8988 | 723.669
299.96 K, 5002 kPa, x2 = 0.6015 | 79.746
299.96 K, 7003 kPa, x2 = 0.3997 | 93.846
299.96 K, 7999 kPa, x2 = 0.2017 | 82.733
299.96 K, 8008 kPa, x2 = 0.8988 | 302.149
299.96 K, 12001 kPa, x2 = 0.3997 | 186.929
299.97 K, 5996 kPa, x2 = 0.7985 | 129.225
299.97 K, 6997 kPa, x2 = 0.2017 | 70.838
299.97 K, 8000 kPa, x2 = 0.3997 | 110.726
299.97 K, 10986 kPa, x2 = 0.8988 | 631.428
299.97 K, 13852 kPa, x2 = 0.0998 | 130.843
299.98 K, 2118 kPa, x2 = 0.0998 | 16.647
299.98 K, 4383 kPa, x2 = 0.0998 | 35.981
299.98 K, 7000 kPa, x2 = 0.6015 | 123.126
299.98 K, 7004 kPa, x2 = 0.8988 | 203.104
299.98 K, 8002 kPa, x2 = 0.6015 | 148.65
299.98 K, 8997 kPa, x2 = 0.3997 | 128.548
299.98 K, 8997 kPa, x2 = 0.8988 | 483.358
299.98 K, 9722 kPa, x2 = 0.0998 | 87.624
299.98 K, 10003 kPa, x2 = 0.7985 | 353.847
299.98 K, 10997 kPa, x2 = 0.7985 | 428.638
299.99 K, 4000 kPa, x2 = 0.2017 | 37.902
299.99 K, 4003 kPa, x2 = 0.3997 | 48.763
299.99 K, 4192 kPa, x2 = 0.0998 | 34.275
299.99 K, 4997 kPa, x2 = 0.7985 | 99.658
299.99 K, 6002 kPa, x2 = 0.2017 | 59.46
299.99 K, 10005 kPa, x2 = 0.2017 | 107.622
299.99 K, 12000 kPa, x2 = 0.2017 | 133.357
299.99 K, 12004 kPa, x2 = 0.6015 | 275.504
299.99 K, 12017 kPa, x2 = 0.8988 | 664.349
299.99 K, 14986 kPa, x2 = 0.0998 | 142.483
299.99 K, 18001 kPa, x2 = 0.2017 | 207.683
300 K, 3662 kPa, x2 = 0.2017 | 34.438
300 K, 6399 kPa, x2 = 0.0998 | 54.523
300 K, 7624 kPa, x2 = 0.0998 | 66.394
300 K, 8000 kPa, x2 = 0.7985 | 212.092
300 K, 10995 kPa, x2 = 0.3997 | 166.796
300 K, 14999 kPa, x2 = 0.2017 | 171.971
300 K, 17997 kPa, x2 = 0.6015 | 433.882
300.01 K, 5001 kPa, x2 = 0.2017 | 48.462
300.01 K, 8998 kPa, x2 = 0.7985 | 274.617
300.01 K, 9002 kPa, x2 = 0.6015 | 176.866
300.01 K, 11000 kPa, x2 = 0.2017 | 120.384
300.02 K, 2964 kPa, x2 = 0.0998 | 23.652
300.02 K, 3999 kPa, x2 = 0.7985 | 74.633
300.02 K, 6996 kPa, x2 = 0.7985 | 165.378
300.02 K, 9996 kPa, x2 = 0.6015 | 207.768
300.02 K, 10011 kPa, x2 = 0.8988 | 582.856
300.02 K, 15007 kPa, x2 = 0.3997 | 246.022
300.02 K, 18000 kPa, x2 = 0.0998 | 171.73
300.03 K, 5996 kPa, x2 = 0.8988 | 149.398
300.03 K, 10998 kPa, x2 = 0.6015 | 241.279
300.03 K, 11790 kPa, x2 = 0.0998 | 109.201
300.03 K, 17999 kPa, x2 = 0.8988 | 760.577
300.04 K, 5006 kPa, x2 = 0.8988 | 112.111
300.04 K, 6260 kPa, x2 = 0.0998 | 53.19
300.04 K, 12001 kPa, x2 = 0.7985 | 485.736
300.04 K, 14998 kPa, x2 = 0.6015 | 367.75
300.05 K, 18002 kPa, x2 = 0.3997 | 297.591
300.06 K, 5002 kPa, x2 = 0.3997 | 62.85
300.06 K, 17999 kPa, x2 = 0.7985 | 637.414
300.07 K, 9277 kPa, x2 = 0.0998 | 82.984
300.07 K, 14999 kPa, x2 = 0.7985 | 584.129
300.07 K, 16598 kPa, x2 = 0.0998 | 158.42
300.1 K, 4310 kPa, x2 = 0.8988 | 90.757
300.21 K, 10004 kPa, x2 = 0.3997 | 147.143
303.07 K, 10005 kPa, x2 = 0.8988 | 522.742
303.07 K, 11007 kPa, x2 = 0.8988 | 588.449
303.1 K, 11000 kPa, x2 = 0.6015 | 229.981
303.1 K, 12003 kPa, x2 = 0.0998 | 109.095
303.1 K, 18071 kPa, x2 = 0.7985 | 621.015
303.11 K, 4004 kPa, x2 = 0.8988 | 80.364
303.11 K, 9000 kPa, x2 = 0.0998 | 78.724
303.11 K, 9001 kPa, x2 = 0.7985 | 254.341
303.11 K, 17996 kPa, x2 = 0.2017 | 202.897
303.11 K, 18001 kPa, x2 = 0.0998 | 167.945
303.12 K, 3001 kPa, x2 = 0.0998 | 23.673
303.12 K, 10001 kPa, x2 = 0.7985 | 320.908
303.12 K, 11000 kPa, x2 = 0.0998 | 98.851
303.13 K, 3999 kPa, x2 = 0.2017 | 37.359
303.13 K, 4999 kPa, x2 = 0.3997 | 61.796
303.13 K, 6004 kPa, x2 = 0.7985 | 125.434
303.13 K, 6999 kPa, x2 = 0.2017 | 69.612
303.13 K, 11860 kPa, x2 = 0.7985 | 444.556
303.13 K, 11999 kPa, x2 = 0.2017 | 130.323
303.14 K, 3995 kPa, x2 = 0.6015 | 59.469
303.14 K, 7004 kPa, x2 = 0.6015 | 119.411
303.14 K, 8002 kPa, x2 = 0.0998 | 68.892
303.14 K, 17999 kPa, x2 = 0.6015 | 420.157
303.15 K, 5000 kPa, x2 = 0.0998 | 40.895
303.15 K, 8006 kPa, x2 = 0.6015 | 143.46
303.15 K, 9999 kPa, x2 = 0.6015 | 198.747
303.15 K, 10004 kPa, x2 = 0.0998 | 88.738
303.15 K, 11003 kPa, x2 = 0.7985 | 391.279
303.15 K, 12001 kPa, x2 = 0.3997 | 181.298
303.15 K, 14998 kPa, x2 = 0.7985 | 561.073
303.16 K, 4000 kPa, x2 = 0.7985 | 73.078
303.16 K, 4001 kPa, x2 = 0.3997 | 48.004
303.16 K, 5009 kPa, x2 = 0.6015 | 77.914
303.16 K, 6006 kPa, x2 = 0.0998 | 50.034
303.16 K, 7994 kPa, x2 = 0.7985 | 200.301
303.16 K, 8000 kPa, x2 = 0.3997 | 108.241
303.16 K, 8016 kPa, x2 = 0.8988 | 253.316
303.16 K, 8992 kPa, x2 = 0.8988 | 374.284
303.16 K, 8999 kPa, x2 = 0.6015 | 169.77
303.17 K, 4998 kPa, x2 = 0.2017 | 47.685
303.17 K, 5005 kPa, x2 = 0.8988 | 108.149
303.17 K, 6001 kPa, x2 = 0.2017 | 58.474
303.17 K, 9001 kPa, x2 = 0.2017 | 93.089
303.17 K, 14997 kPa, x2 = 0.0998 | 139.317
303.17 K, 18000 kPa, x2 = 0.8988 | 742.988
303.18 K, 4002 kPa, x2 = 0.0998 | 32.139
303.18 K, 5999 kPa, x2 = 0.3997 | 76.379
303.18 K, 6996 kPa, x2 = 0.3997 | 91.801
303.18 K, 7001 kPa, x2 = 0.8988 | 186.521
303.18 K, 7999 kPa, x2 = 0.2017 | 81.148
303.19 K, 7000 kPa, x2 = 0.0998 | 59.247
303.19 K, 12002 kPa, x2 = 0.6015 | 261.85
303.19 K, 15005 kPa, x2 = 0.2017 | 167.871
303.2 K, 5001 kPa, x2 = 0.7985 | 97.235
303.2 K, 8999 kPa, x2 = 0.3997 | 125.402
303.2 K, 10993 kPa, x2 = 0.3997 | 162.067
303.2 K, 10996 kPa, x2 = 0.2017 | 117.65
303.21 K, 7002 kPa, x2 = 0.7985 | 158.82
303.21 K, 9999 kPa, x2 = 0.3997 | 143.458
303.21 K, 15000 kPa, x2 = 0.8988 | 701.018
303.21 K, 17999 kPa, x2 = 0.3997 | 288.435
303.22 K, 9998 kPa, x2 = 0.2017 | 105.223
303.22 K, 15003 kPa, x2 = 0.6015 | 352.168
303.23 K, 6005 kPa, x2 = 0.6015 | 97.567
303.26 K, 6002 kPa, x2 = 0.8988 | 141.868
